Experimental data: PubChem BioAssay (NCI)
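Method: 48-hour compound exposure of cells in 96-well plates, five concentrations, linear interpolation of endpoints. TGI marks complete inhibition of growth.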

Test system: SN12K1 renal
Test: growth of human tumour cells (NCI), 48 h

## CC[C@@]1(O)C(=O)OCc2c1cc1n(c2=O)Cc2cc3cc(O)ccc3nc2-1
  TGI: 937 nM
